According to PubChem BioAssay (NCI):
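These data come from cells grown in 96-well plates and exposed to compound for 48 hours at five concentrations. GI50 marks 50% less growth. TGI denotes the concentration required for complete inhibition of growth.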

Key:
Experiment in all cases: DTP human tumour cell line panel, 48 h
[1] = test system: TK-10 renal
[2] = test system: CAKI-1 renal
[3] = test system: SF-295 CNS
[4] = test system: MDA-N
[5] = test system: COLO 205 colon
[6] = test system: MDA-MB-435
[7] = test system: HT29 colon
[8] = test system: HCT-116 colon

Structure (SMILES)	TGI [1]	TGI [2]	TGI [3]	TGI [4]	TGI [5]	TGI [6]	TGI [7]	TGI [8]	GI50 [1]	GI50 [2]	GI50 [3]	GI50 [5]	GI50 [6]	GI50 [7]	GI50 [8]
CC(=O)O[C@H]1C#C/C=C\C#CC[C@@H]2C(=O)N(C(=O)OC(C)(C)C)[C@@H]12	> 100 µM	> 54 µM	> 100 µM	> 100 µM	> 100 µM	> 100 µM	> 100 µM	> 89.4 µM							
Cc1cccc(C(C)(C)C)c1NC(=O)/C(Cc1nc2ccc([N+](=O)[O-])cc2[nH]c1=O)=N/NC(=O)C[N+](C)(C)C		> 100 µM	> 100 µM	> 100 µM	> 100 µM	> 100 µM	> 100 µM	> 100 µM							
Cc1cc(S(=O)(=O)Nc2nnc3c(C(F)(F)F)cc(Cl)cn23)c(S)cc1Cl	> 100 µM	> 100 µM		> 100 µM	> 100 µM	> 100 µM	> 100 µM	> 100 µM							
Cc1ccc(S(=O)(=O)n2cncc2CO)cc1	> 100 µM	> 100 µM	> 100 µM	> 100 µM	> 100 µM	> 100 µM	> 100 µM	> 100 µM							
COc1cc2cc(C(=O)N3CC(CCl)c4c3cc(N)c3ccccc43)[nH]c2cc1OCCN(C)C (stereo unspecified)	8.67 µM	0.094 µM			0.00971 µM	< 0.005 µM	5.17 µM	0.623 µM							
CC(=O)/C=C/C=C(\C)CC/C=C(\C)CC(C)C	> 100 µM	> 100 µM	> 100 µM	> 100 µM	39 µM	77.1 µM	> 100 µM	62.8 µM							
Cc1cc(Cc2c(F)c(F)c(Cc3cc(C)no3)c(F)c2F)on1	> 100 µM	24.6 µM	> 100 µM	> 100 µM	> 100 µM	> 100 µM	> 100 µM	> 100 µM							
O=C(N/N=C\c1cccc2ccccc12)Nc1ccc([N+](=O)[O-])cc1	> 80.9 µM	> 100 µM	> 100 µM	> 89 µM	> 60.7 µM	> 100 µM	> 100 µM	> 53.7 µM							
Cc1cc(C)c(S(=O)(=O)N(CCCCN)OCCCN)c(C)c1	32 µM	31.3 µM	37 µM	31.1 µM	22.7 µM	30.7 µM	27.8 µM	30.9 µM							
O=C(c1ccccc1)c1c(C(F)(F)F)n([O-])c2ccccc2[n+]1=O	3.6 µM	1.94 µM					2.23 µM	> 100 µM							
CN(C(=O)C1(C(=O)C=[N+]=[N-])CC1)c1ccccc1	> 100 µM		> 100 µM	> 100 µM	> 100 µM	> 100 µM	> 100 µM	> 100 µM							
O=C1NC(=S)N/C1=C/c1ccccc1O	> 100 µM	> 100 µM	> 100 µM	> 100 µM	> 100 µM	> 100 µM	> 100 µM	> 100 µM							
O=C(O)/C=C(/CC(=O)O)C(=O)O	54.6 µM	54.1 µM	37.8 µM	54.6 µM	38.6 µM	42.6 µM	59.2 µM	35.6 µM							
C#CCNC(Cc1cnc[nH]1)C(=O)O (stereo unspecified)	> 100 µM	> 100 µM	> 100 µM	> 100 µM	> 100 µM	> 100 µM	> 100 µM	> 100 µM							
COc1ccc(C(O)c2ccc3c(c2)OCO3)cc1 (stereo unspecified)	> 100 µM	> 100 µM	> 100 µM	> 100 µM	> 100 µM	> 100 µM	> 100 µM	> 100 µM							
O=C1/C(=C/c2ccccc2)CCc2ccc(Cl)nc21	32.7 µM	10.3 µM	38.2 µM	18.5 µM	40.5 µM	30.4 µM	3.78 µM	7 µM							
CCCn1c(C23CC4CC(CC(C4)C2)C3)nc2ccc(Cl)cc2c1=O	> 100 µM	> 100 µM	> 100 µM	> 100 µM	> 100 µM	> 100 µM	80.2 µM	> 100 µM							
COC(=O)C1=C(O)C(C(=O)OC)[C@@]2(O)[C@@H](C(=O)OC)C(c3ccc(OC(=O)/C(=C/c4ccc(Cl)cc4)c4ccc(Cl)cc4)cc3)C[C@@H]1[C@@H]2C(=O)OC (stereo partly specified)	73.7 µM	85.9 µM	> 100 µM	51.9 µM	92.6 µM	> 100 µM	> 100 µM	> 100 µM							
CN=C(Nn1cnnc1)OC		> 100 µM	> 100 µM	> 100 µM	> 100 µM	> 100 µM	> 100 µM	> 100 µM							
Cc1nnc2cc(C(=O)O)c3ccccc3n2c1=O	> 10 µM	> 10 µM	> 10 µM	> 10 µM	> 10 µM	> 10 µM	> 10 µM	> 10 µM							
N#Cc1c(Nc2ccc(F)cc2)[n+]([O-])c2ccc(Cl)cc2[n+]1[O-]	> 100 µM	20.9 µM	4.95 µM	> 100 µM	4.52 µM	> 100 µM	> 100 µM	> 100 µM							
CC1=C(C(=O)OCCc2ccc([N+](=O)[O-])cc2)C(c2ccccc2[N+](=O)[O-])C(C(=O)OC(C)C)=C(C)N1 (stereo unspecified)	> 100 µM	> 100 µM	> 100 µM	> 100 µM	> 100 µM	> 100 µM	> 100 µM	> 100 µM							
Cc1cc2ccccc2c[n+]1CC(O)C[n+]1cc2ccccc2cc1C	> 100 µM	> 100 µM	> 100 µM	> 100 µM	> 100 µM	> 100 µM	> 100 µM	> 100 µM							
O=C(CC(O)(C(F)(F)F)C(F)(F)F)C(CCCl)C(O)(C(F)(F)F)C(F)(F)F (stereo unspecified)	> 100 µM	77.1 µM	> 100 µM	> 100 µM	26.8 µM	> 100 µM	91.5 µM	> 100 µM							
N#CC1=C(N)C(C#N)(C#N)C(c2ccc(F)cc2)C=C1C1CC1 (stereo unspecified)	44 µM	28.2 µM	25.8 µM	6.67 µM	24.9 µM	12.4 µM	22.8 µM	15.8 µM							
O=C(O)C(CCc1ccccn1)c1ccccc1 (stereo unspecified)	> 100 µM	> 100 µM	> 100 µM	> 100 µM	> 100 µM	> 100 µM	> 100 µM	> 100 µM							

Structure (SMILES)	TGI [1]	TGI [2]	TGI [3]	TGI [4]	TGI [5]	TGI [6]	TGI [7]	TGI [8]	GI50 [1]	GI50 [2]	GI50 [3]	GI50 [5]	GI50 [6]	GI50 [7]	GI50 [8]
COC(=O)c1ccc(-c2nc(C#N)c(N)o2)cc1	> 100 µM	> 100 µM	> 100 µM		> 100 µM	> 100 µM	> 100 µM	> 100 µM							
CC(C)(CO)CNc1nc(N)nc(Cl)c1N	> 100 µM	> 100 µM	> 100 µM	> 100 µM	> 100 µM	> 100 µM	> 100 µM	> 100 µM							
N#Cc1c(NC(=O)c2ccccc2)sc2c1CCC(=O)C2	28.7 µM	1.86 µM	6.83 µM		4.46 µM	3.6 µM	> 100 µM		1.98 µM	0.38 µM	1.96 µM	1.93 µM	0.594 µM	0.747 µM	
CCOC(=O)c1cc2c(OC(C)=O)ccc(OC(C)=O)c2s1	17.5 µM	8.46 µM	18.3 µM		4.81 µM	7.38 µM	10.7 µM	9 µM							
O=C(/C=C/c1ccc(-c2ccccc2[N+](=O)[O-])o1)NCc1ccc(C(=O)NCCc2ccccc2)cc1	> 100 µM	> 100 µM	> 100 µM		> 100 µM	> 100 µM	> 100 µM	> 100 µM							
O=[N+]([O-])c1cccc([N+](=O)[O-])c1S(=O)(=O)c1ccccc1	30.2 µM	3.76 µM	31.8 µM	19.8 µM	19.4 µM	14.6 µM	36.2 µM	4.04 µM							
O=C(C1=C(C(=O)c2ccccc2)SC2(S1)C(C(=O)c1ccccc1)=C(C(=O)c1ccccc1)Sc1c2ssc1=O)c1ccccc1	> 100 µM	> 100 µM	> 100 µM	> 100 µM	> 100 µM	> 100 µM	> 100 µM	> 100 µM							
Cc1cc2ccccc2n1CC(=O)NCC(C)C	> 100 µM	> 100 µM	> 100 µM	> 100 µM	> 100 µM	> 100 µM	> 100 µM	> 100 µM							
OC1CCCC1C(O)(C(F)(F)F)C(F)(F)F (stereo unspecified)	> 100 µM	> 100 µM	> 100 µM	> 100 µM	> 100 µM	> 100 µM	> 100 µM	> 100 µM							
COC(=O)C(/C(=N/NC(=O)c1ccncc1)C(=O)Nc1ccccc1OC)c1nc2ccc(Cl)cc2[nH]c1=O (stereo unspecified)	> 100 µM	> 100 µM	> 100 µM	> 100 µM		> 100 µM	> 100 µM	> 100 µM							
N#CCCC1C(C#N)C2CC1C1C3C=CC(C3)C21 (stereo unspecified)	> 100 µM	> 100 µM	> 100 µM	> 100 µM	> 100 µM	> 100 µM	> 100 µM	> 100 µM							
CC[C@]12C=CCN3CCC4(c5cc(N=Nc6ccccc6)c(OC)cc5N(C)[C@H]4[C@@](O)(C(=O)OC)[C@@H]1OC(C)=O)[C@@H]32 (stereo partly specified)	34.1 µM	69.8 µM	34.5 µM	35.8 µM	77.1 µM	37.9 µM	33.8 µM	31.2 µM							
Cn1c(=O)c2c(-c3ccccc3)onc2n(C)c1=O	42.9 µM	> 100 µM	> 100 µM	> 100 µM	> 100 µM	> 100 µM	> 100 µM	> 100 µM							
CC(=O)N(CN1C(=O)CCC1C(=O)O)c1ccccc1 (stereo unspecified)	> 100 µM	> 100 µM	> 100 µM	> 100 µM	> 100 µM	> 100 µM	> 100 µM	> 100 µM							
CCc1nnc(-n2c(C)nc3cc(Cl)ccc3c2=O)s1	> 100 µM	> 100 µM	> 100 µM	49.1 µM	> 100 µM	> 100 µM	> 100 µM	> 100 µM							
NC(N)=N/N=C/c1c(-c2ccc([N+](=O)[O-])cc2)nc2sccn12	3.22 µM	6.93 µM	2.87 µM		1.96 µM	2.87 µM	2.95 µM	3.05 µM							
CN(CCc1ccc(Cl)c(Cl)c1)[C@H]1CCCC[C@H]1N1CCCC1	> 100 µM	> 100 µM	> 100 µM	> 100 µM	> 100 µM	> 100 µM	> 100 µM	> 100 µM							
C/C(=C/CO[Si](C)(C)C(C)(C)C)C(=O)N(C)c1ccccc1I	33.3 µM	29.9 µM	31.5 µM	31.9 µM	33.8 µM	33.7 µM	22.6 µM	25.8 µM							
COc1ccc(/C=C/c2cc(O)cc(OC)c2)cc1	> 100 µM	> 100 µM	> 100 µM		> 100 µM	> 100 µM	> 100 µM	> 100 µM							
c1ccc(CCN2CCCCCC2)nc1	> 100 µM	> 100 µM	> 100 µM		> 100 µM	> 100 µM	> 100 µM	> 100 µM							
COc1ccc(C2(c3ccc(OC)cc3)OC(=O)c3cccc4cccc2c34)cc1	96.4 µM	9.87 µM	> 100 µM			> 100 µM	5.98 µM	> 100 µM							
CC(CCC(=O)O)[C@H]1CCC2[C@H]3C(CC[C@@]21C)[C@@]1(C)CCC(O)C[C@H]1C[C@@H]3O (stereo partly specified)	> 100 µM	> 100 µM		> 100 µM	> 100 µM	> 100 µM	> 100 µM	> 100 µM							
Cc1c2c3cc(O)ccc3nc-2n(C)c2ccccc12	9.82 µM		13 µM	8.37 µM		4.62 µM	7.26 µM	10.1 µM							
OC(c1ccc(Cl)cc1)(c1ccc(Cl)cc1)C(O)(c1ccc(Cl)cc1)c1ccc(Cl)cc1						> 100 µM	> 100 µM	> 100 µM					2.94 µM	1.72 µM	2.02 µM
CC(C)CCC[C@@H](C)[C@H]1CC[C@H]2[C@@H]3CC=C4C[C@@H](OC(=O)c5cccc6c(=O)c7ccccc7[nH]c56)CC[C@]4(C)[C@H]3CC[C@]12C	> 75 µM		> 75 µM	> 75 µM	> 75 µM	> 75 µM	> 75 µM								
